# Test results from patent US4719302A (priority 1987, dated 1988).
# Like-named read-outs stand apart in the source and are kept apart here.
# Experiments:
# Assay type in all cases: cell-based
# [1] = tested on: Candida albicans ATCC 10231; experiment: antifungal activity, disc agar assay (Minimum Inhibitory Concentration), Candida albicans
# Description: (§1) The compounds of the invention are tested to determine their antifungal activity. The assay procedure is as follows:
# (§2) The compounds to be tested are solubilized or suspended in appropriate reagent and further diluted in sterile distilled water to provide a range of concentrations from 200 to 10 μg/ml. 20 Lambda portions are placed on sterile dried 1/4 inch paper discs and allowed to dry for 20-30 minutes. Agar plates with a 10 ml base layer are seeded with the fungi in a 4 ml seed layer and allowed to solidify. The impregnated discs are then placed on the seeded agar surface and incubated for the time required for the particular culture.
# (§3) The representative fungi are:
# Candida albicans ATCC 10231
# (§4) All are human pathogens; the first four cause serious systemic mycotic infections as well as local. The trychophyton culture is mainly a dermatophyte.
# [2] = tested on: Cryptococcus neoformans ATCC 14115; experiment: antifungal activity, disc agar assay (Minimum Inhibitory Concentration), Cryptococcus neoformans
# Description: as §1, §2, §3, §4
# [3] = tested on: Histoplasma capsulatum Yeast Phase ATCC 11407; experiment: microbe, parasite or virus in culture; conditions: read-out: Minimum Inhibitory Concentration
# [4] = tested on: Blastomyces dermatitidis Yeast Phase ATCC 28839; experiment: antifungal activity, disc agar assay (Minimum Inhibitory Concentration), Blastomyces dermatitidis yeast phase; conditions: read-out: Minimum Inhibitory Concentration
# Description: as §1, §2, §3
# Blastomyces dermatitidis
# as §4
# [5] = tested on: Trichophyton mentagrophytes ATCC 9533; experiment: antifungal activity, disc agar assay (Minimum Inhibitory Concentration), Trichophyton mentagrophytes
# Description: as §1, §2, §3
# Trichophyton mentagrophytes
# as §4
# [6] = ATCC10231, Candida Albicans ATCC 10231, read-out: Minimum Inhibitory Concentration
# [7] = ATCC14115, Cryptococcus Neoformans ATCC 14115, read-out: Minimum Inhibitory Concentration
# [8] = Blastomyces Dermatitidis Yeast Phase ATCC 28839
# [9] = ATCC9533, Trichophyton Mentagrophytes ATCC 9533, read-out: Minimum Inhibitory Concentration
SMILES,"MIC [1, 6] [µg/mL]","MIC [2, 7] [µg/mL]",MIC [3] [µg/mL],"MIC [4, 8] [µg/mL]","MIC [5, 9] [µg/mL]","MIC ([1]; Candida albicans, ATCC10231, read-out: Minimum Inhibitory Concentration) [µg/mL]","MIC ([2]; Cryptococcus neoformans, ATCC14115, read-out: Minimum Inhibitory Concentration) [µg/mL]",MIC [4] [µg/mL],"MIC ([5]; Trichophyton mentagrophytes, ATCC9533, read-out: Minimum Inhibitory Concentration) [µg/mL]"
"CCOC(=O)c1c[nH]c2c(F)cc3c(=O)c(C(=O)O)cn(CC)c3c2c1=O [Example 1, 1-Ethyl-6-fluoro-1,4,7,10-tetrahydro-4,10-dioxo-1,7-phenanthroline-3,9-dicarboxylic acid 9-ethyl ester]",32,64,32,32,64,,,,
"CCOC(=O)c1cn(CC)c2c(cc(F)c3c2c(=O)c(C(=O)OCC)cn3CC)c1=O [Example 2, 1,7-Diethyl-6-fluoro-1,4,7,10-tetrahydro-4,10-dioxo-1,7-phenanthroline-3,9-dicarboxylic acid diethyl ester]",> 64,> 64,64,64,> 64,,,,
"CCn1cc(C(=O)O)c(=O)c2c1c(F)cc1c(=O)c(C(=O)O)cn(CC)c12 [Example 3, 1,7-Diethyl-6-fluoro-1,4,7,10-tetrahydro-4,10-dioxo-1,7-phenanthroline-3,9-dicarboxylic acid]",> 64,> 64,64,64,> 64,,,,
"CCOC(=O)c1c[nH]c2c(cc(F)c3c2c(=O)ccn3CC)c1=O [Example 4, 7-Ethyl-6-fluoro-1,4,7,10-tetrahydro-4,10-dioxo-1,7-phenanthroline-3-carboxylic acid ethyl ester]",,,> 256,,,> 256,> 256,> 256,> 256
"CCOC(=O)c1c[nH]c2c(cc(F)c3c2c(=O)c(C(=O)O)cn3CC)c1=O [Example 5, 7-Ethyl-6-fluoro-1,4,7,10-tetrahydro-4,10-dioxo-1,7-phenanthroline-3,9-dicarboxylic acid 3-ethyl ester]",> 256,> 256,> 256,> 256,> 256,,,,
"CCOC(=O)c1c[nH]c2c(cc(F)c3c2c(=O)c(C(=O)OCC)cn3CC)c1=O [Example 6, 7-Ethyl-6-fluoro-1,4,7,10-tetrahydro-4,10-dioxo-1,7-phenanthroline-3,9-dicarboxylic acid diethyl ester]",> 64,> 64,64,64,> 64,,,,
